The source of these data is patent publication US20020026053A1, “Novel 3-(substituted) -2- indolinones compounds and use thereof as inhibitors of protein kinase activity” (priority 1997, published 2002).

One assay relates to FLK-1 receptor. Description: FLK-1 Assay (cellular/catalytic ELISA, VEGF-stimulated phosphotyrosine). The arrangement: concentration or dose not given beside the values. Format: cell-based. In outline:
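Receptor phosphotyrosine ELISA: Flk-1-expressing NIH3T3 C7#3 cells, starved overnight in 0.1% FBS medium, received compound (1:200 final dilution, 0.5% DMSO) for 2 h at 37 °C, then VEGF. Anti-FLK-1-captured receptor was probed with anti-phosphotyrosine UB40 and peroxidase/ABTS read-out, relative to cells without compound.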

A further assay deals with PDGF-R. The assay is described as follows: PDGF-R Assay (cellular ELISA, U1242 cells). Format: cell-based. The arrangement: concentration or dose not given beside the values. In outline:
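Cellular ELISA for receptor autophosphorylation: after 2 hr test-compound treatment of serum-free U1242 cells at 37°C, ligand is added for 5–10 min, cells are lysed (HNTG) and receptor captured by specific antibody. Anti-phosphotyrosine plus secondary antibody with ABTS colour read at 410/630 nm, compared with compound-free control cells.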
A general note: ELISA stands for enzyme-linked immunosorbent assay.

On to `Cc1c(Br)cc(Br)c2c1C(=Cc1ccc(F)c(F)c1)C(=O)N2` [10735/H03], for which the “Flk Kinase % Inhibition (P.110)” value with FLK-1 receptor stood at 7.4%. Moreover, the “PDGF Kinase % Inhibition (P.119)” value with PDGF-R is reported as 1.2%.

On to `CNS(=O)(=O)c1ccc2c(c1)C(=Cc1ccccc1Cl)C(=O)N2` [10736/D11], for which, in the assay with FLK-1 receptor, the “Flk Kinase % Inhibition (P.110)” value amounted to 12.5%. Also, the “PDGF Kinase % Inhibition (P.119)” value in the assay on PDGF-R is −4.3%.

In the case of `COc1cccc(C=C2C(=O)Nc3c(Br)cc(Br)cc32)c1` [10736/A10], in the assay with FLK-1 receptor, the “Flk Kinase % Inhibition (P.110)” value was −11.0%. In addition, the “PDGF Kinase % Inhibition (P.119)” value in the assay on PDGF-R amounted to 5.8%.

As for `O=C1Nc2ccc(I)cc2C1=Cc1cccc(Cl)c1` [10736/B06], the “Flk Kinase % Inhibition (P.110)” value in the assay on FLK-1 receptor is recorded as 3.8%. Besides, the “PDGF Kinase % Inhibition (P.119)” value with PDGF-R was found to be 20.7%.

As to `O=C1Nc2ccc(CCCl)cc2C1=Cc1cccc2ccccc12` [10735/G09], in the assay on FLK-1 receptor, the “Flk Kinase % Inhibition (P.110)” value came to 15.9%. For the same molecule, in the assay with PDGF-R, the “PDGF Kinase % Inhibition (P.119)” value was found to be 2.2%.

For `CCc1ccc(C=C2C(=O)Nc3c(Br)cc(Br)cc32)cc1` [10736/A09], the “Flk Kinase % Inhibition (P.110)” value in the assay on FLK-1 receptor is reported as −8.7%. Moreover, in the assay on PDGF-R, the “PDGF Kinase % Inhibition (P.119)” value is −6.5%.

For `Cc1ccccc1C=C1C(=O)Nc2c(Br)cc(Br)c(C)c21` [10735/H02], the “Flk Kinase % Inhibition (P.110)” value with FLK-1 receptor is given as 14.5%. Besides, in the assay on PDGF-R, the “PDGF Kinase % Inhibition (P.119)” value is −4.7%.

Regarding `CNS(=O)(=O)c1ccc2c(c1)C(=Cc1ccc(Cl)cc1)C(=O)N2` [10736/D02], the “Flk Kinase % Inhibition (P.110)” value with FLK-1 receptor is on record as 5.8%. For the same molecule, the “PDGF Kinase % Inhibition (P.119)” value in the assay with PDGF-R was −10.5%.

Turning to `CNS(=O)(=O)c1ccc2c(c1)C(=Cc1ccc(C)cc1)C(=O)N2` [10736/D05], the “Flk Kinase % Inhibition (P.110)” value in the assay with FLK-1 receptor is recorded as 15.2%. Moreover, the “PDGF Kinase % Inhibition (P.119)” value in the assay with PDGF-R is 3.6%.

As for `Cc1c(Br)ccc2c1C(=Cc1ccccc1Cl)C(=O)N2` [10736/C11], the “Flk Kinase % Inhibition (P.110)” value in the assay on FLK-1 receptor was found to be 7.2%. Besides, the “PDGF Kinase % Inhibition (P.119)” value in the assay on PDGF-R was determined as 0.5%.

On to `CNS(=O)(=O)c1ccc2c(c1)C(=Cc1ccccc1C(F)(F)F)C(=O)N2` [10736/D03], for which the “Flk Kinase % Inhibition (P.110)” value in the assay on FLK-1 receptor came to 5.4%. Further, the “PDGF Kinase % Inhibition (P.119)” value in the assay on PDGF-R was 14.5%.

Regarding `CNS(=O)(=O)c1ccc2c(c1)C(=Cc1cccc(OC)c1)C(=O)N2` [10736/D10], the “Flk Kinase % Inhibition (P.110)” value with FLK-1 receptor is given as −11.6%. Also, in the assay with PDGF-R, the “PDGF Kinase % Inhibition (P.119)” value was −2.1%.

As for `Cc1cccc(C=C2C(=O)Nc3ccc(Br)c(C)c32)c1` [10736/C04], the “Flk Kinase % Inhibition (P.110)” value with FLK-1 receptor is recorded as 2.8%. The “PDGF Kinase % Inhibition (P.119)” value with PDGF-R came out at 8.4%.

In the case of `O=C1Nc2ccc(I)cc2C1=Cc1cccc(F)c1` [10736/B07], the “Flk Kinase % Inhibition (P.110)” value in the assay with FLK-1 receptor was found to be 4.0%. Also, in the assay on PDGF-R, the “PDGF Kinase % Inhibition (P.119)” value is listed as 20.7%.

On to `O=C1Nc2c(Br)cc(Br)cc2C1=Cc1cccc(F)c1` [10736/A07], for which the “Flk Kinase % Inhibition (P.110)” value in the assay with FLK-1 receptor is on record as −12.6%. The “PDGF Kinase % Inhibition (P.119)” value in the assay on PDGF-R worked out at 8.4%.

As to `Cc1c(Br)ccc2c1C(=Cc1cccc(Cl)c1)C(=O)N2` [10736/C06], the “Flk Kinase % Inhibition (P.110)” value with FLK-1 receptor came out at 6.2%. Further, in the assay on PDGF-R, the “PDGF Kinase % Inhibition (P.119)” value is reported as 26.4%.

For `O=C1Nc2ccc(CCCl)cc2C1=Cc1ccc(-c2ccccc2)cc1` [10735/G11], in the assay with FLK-1 receptor, the “Flk Kinase % Inhibition (P.110)” value is reported as 10.1%. In addition, the “PDGF Kinase % Inhibition (P.119)” value with PDGF-R is −5.3%.

For the molecule `CCc1ccc(C=C2C(=O)Nc3ccc(S(=O)(=O)NC)cc32)cc1` [10736/D09], the “Flk Kinase % Inhibition (P.110)” value with FLK-1 receptor stood at 8.5%. The “PDGF Kinase % Inhibition (P.119)” value with PDGF-R is listed as −6.5%.

Consider `Cc1cccc(C=C2C(=O)Nc3ccc(S(=O)(=O)Nc4ccc(C(F)(F)F)cc4)cc32)c1` [10736/E04], for which the “Flk Kinase % Inhibition (P.110)” value in the assay with FLK-1 receptor came to 22.6%. In the assay with PDGF-R, the “PDGF Kinase % Inhibition (P.119)” value came to 24.6%.

Consider `Cc1c(Br)cc(Br)c2c1C(=Cc1cc(C(F)(F)F)cc(C(F)(F)F)c1)C(=O)N2` [10735/H06], for which the “Flk Kinase % Inhibition (P.110)” value in the assay on FLK-1 receptor was determined as 25.9%. Besides, in the assay on PDGF-R, the “PDGF Kinase % Inhibition (P.119)” value is recorded as 6.4%.

For the molecule `O=C1Nc2ccc(S(=O)(=O)Nc3ccc(C(F)(F)F)cc3)cc2C1=Cc1ccccc1C(F)(F)F` [10736/E03], the “Flk Kinase % Inhibition (P.110)” value in the assay with FLK-1 receptor was 17.7%. In addition, the “PDGF Kinase % Inhibition (P.119)” value in the assay on PDGF-R is on record as 96.1%.

Turning to `N#Cc1ccccc1C=C1C(=O)Nc2ccc(CCCl)cc21` [10735/G07], in the assay with FLK-1 receptor, the “Flk Kinase % Inhibition (P.110)” value is listed as 17.6%. Also, the “PDGF Kinase % Inhibition (P.119)” value with PDGF-R is reported as 12.6%.

Turning to `Cc1c(Br)cc(Br)c2c1C(=Cc1cccc3ccccc13)C(=O)N2` [10735/H09], in the assay with FLK-1 receptor, the “Flk Kinase % Inhibition (P.110)” value was determined as 20.6%. Besides, the “PDGF Kinase % Inhibition (P.119)” value with PDGF-R is 6.4%.

Take `O=C1Nc2ccc(S(=O)(=O)Nc3ccc(C(F)(F)F)cc3)cc2C1=Cc1ccccc1F` [10736/E08]: in the assay on FLK-1 receptor, the “Flk Kinase % Inhibition (P.110)” value turned out to be 19.3%. In addition, in the assay with PDGF-R, the “PDGF Kinase % Inhibition (P.119)” value is on record as 7.9%.

`CCc1ccc(C=C2C(=O)Nc3ccc(I)cc32)cc1` [10736/B09]: the “Flk Kinase % Inhibition (P.110)” value in the assay on FLK-1 receptor is 8.0%. Besides, the “PDGF Kinase % Inhibition (P.119)” value in the assay with PDGF-R came out at 7.1%.

In the case of `O=C1Nc2ccc(CCCl)cc2C1=Cc1c(F)cccc1F` [10735/G08], the “Flk Kinase % Inhibition (P.110)” value in the assay with FLK-1 receptor is 10.9%. Besides, in the assay on PDGF-R, the “PDGF Kinase % Inhibition (P.119)” value was found to be 9.8%.

As for `O=C1Nc2ccc(S(=O)(=O)Nc3ccc(C(F)(F)F)cc3)cc2C1=Cc1ccccc1Cl` [10736/E11], in the assay with FLK-1 receptor, the “Flk Kinase % Inhibition (P.110)” value amounted to 20.5%. Also, the “PDGF Kinase % Inhibition (P.119)” value with PDGF-R was determined as 0.9%.
